Data taken from article PMC8115619, “Generation of a chemical genetic model for JAK3” (Scientific Reports, 2021).

How the values were obtained:
[1] = system: IL-4 induced STAT6 phosphorylation in wild type BMDMs; assay: IL-4 induced STAT6 phosphorylation in wild type BMDMs (immunoblot); assay type: cell-based; conditions: Mus musculus, BMDM, 0.5 h; 10 ng/ml IL-4 30 min, pSTAT6 Tyr641 immunoblot, two independent experiments
Method: (§1) Figure 3 Effect of JAK3 inhibitors on IL-4 induced STAT6 phosphorylation. BMDMs were isolated from wild type and JAK3 Cys905Ser knockin mice. Cells were incubated with the indicated concentrations of inhibitor before stimulation for 30 min with 10 ng/ml IL-4. Cells were lysed and the levels of STAT6 phosphorylated at Tyr641 were assessed by immunoblotting. Levels of ERK1/2 were determined as a loading control.
(§2) Bone marrow derived macrophages (BMDMs) were cultured as described. Briefly, bone marrow was flushed in PBS from the femurs and tibias of mice. Cells were cultured on bacterial grade plastic for 7 days at 37 °C, 5% CO2. Cells were then detached using Versene (Gibco), re-plated on tissue culture plastic in BMDM media (in DMEM supplemented with 10% heat inactivated FBS (Labtech), 2 mM L-glutamine, 100 U/ml penicillin G, 100 μg/ml streptomycin and 0.25 μg/ml amphotericin, 5 ng/ml M-CSF) and used within 48 h. Where indicated cells were stimulated with 10 ng/ml IL-4, 10 ng/ml GM-CSF, 10 ng/ml IL-10 or 10 ng/ml IFNβ. All cytokines were from PeproTech.
(§3) Cells were lysed directly into SDS sample buffer and aliquots run on 10% polyacrylamide gels using standard methods. Proteins were transferred onto nitrocellulose membranes, and specific proteins were detected by immunoblotting. Antibodies against tyrosine phosphorylated STATs were from Cell Signaling Technology (phospho-STAT1 #9167, phospho-STAT3 #9131, phospho-STAT5 #4322 and phospho-STAT6 #9361). The total ERK1/2 antibody used as a loading control was also from cell Signaling Technology (#4695). HRP-conjugated secondary antibodies were obtained from Pierce. Bands were detected using Clarity ECL reagents from BioRad and imaged on a Licor Odyssey Fc system. Quantification was carried out using Licor Image Studio software. After correction for the ERK1/2 levels to account for loading differences, percentage inhibition was calculated relative to the IL-4 stimulated condition. IC50 values were calculated using the same methods as for the in vitro IC50 values.

[2] = system: IL-4 induced STAT6 phosphorylation in BMDMs from JAK3 Cys905Ser knockin mice; assay: IL-4 induced STAT6 phosphorylation in JAK3 Cys905Ser knockin BMDMs (immunoblot); assay type: cell-based, mouse; conditions: Mus musculus, BMDM, 0.5 h; 10 ng/ml IL-4 30 min, pSTAT6 Tyr641 immunoblot, two independent experiments
Method: as §1, §2, §3

[3] = system: IL-4 induced STAT6 phosphorylation in wild type BMDMs; assay: Inhibitor washout, IL-4 induced STAT6 phosphorylation, wild type BMDMs; assay type: cell-based, mouse; conditions: inhibitor 2 h, 0.5 μM Ruxolitinib
Method: Covalent inhibitors would be predicted to have very slow off rates and therefore inhibition should remain even if the unbound inhibitors are washed out of the cells. To test this, cells were treated with a high concentration of inhibitor for 2 h before being washed 3 times in PBS and then incubated in media without inhibitor for 0.5 to 24 h. If the inhibitor acts via a non-covalent mechanism, inhibition would not be expected to remain following washout from the cells. Ruxolitinib is a non-covalent pan-JAK inhibitor that can inhibit multiple JAK-STAT pathways in macrophages. […] To confirm this was not the case, similar experiments were done in JAK3 Cys905Ser knockin cells. […] Similar experiments were also carried out with PF-06651600. […] As the level of inhibition was lower at 2 h post washout than 30 min the experiment was repeated to look at 4 and 24 h time points for the washout step.
Figure 4 Effect of inhibitor washout on JAK3 inhibition. BMDMs were isolated from wild type and JAK3 Cys905Ser knockin mice. […] The macrophages were then either stimulated with 10 ng/ml IL-4 for 30 min or washed 3 times in PBS and then incubated in media without inhibitor for the indicated times. The cells were then stimulated with IL-4 for 30 min and STAT6 phosphorylation determined by immunoblotting using levels of ERK1/2 as a loading control.
as §2, §3

SMILES | IC50 [1] | IC50 [2] | block of IL-4 induced STAT6 phosphorylation without washout, wild type BMDMs ([3]; no washout, 10 μM TL6-144) | inhibition of IL-4 induced STAT6 phosphorylation after inhibitor washout, wild type BMDMs ([3]; washed 3 times in PBS, IL-4 30 min to 2 h after washout, 10 μM TL6-144, 100 μM PF-06651600)
CN(C)C(=O)/C(C#N)=C/c1ccc(-c2nc3cnc4[nH]ccc4c3n2C2CCCCC2)o1 [FM-381, reference compound] | 180 nM | 890 nM | – | –
N#CC[C@H](C1CCCC1)n1cc(-c2ncnc3[nH]ccc23)cn1 [Ruxolitinib] | – | – | completely block | completely lost
